One assay relates to M. tuberculosis Kato. Put plainly: In vitro antibacterial activity (2): MIC by broth dilution method. Type of assay: cell-based. As to conditions: Mycobacterium tuberculosis; Middlebrook 7H9 broth, 35° C. for 10–21 days; read-out: MICs against Mycobacterium tuberculosis, M. tuberculosis Kato. As for the experimental part: The minimum inhibitory concentration (MICs) of the test compounds against Mycobacterium tuberculosis was determined by the broth dilution method. After the solution of a test compound in dimethyl sulfoxide (DMSO) or distilled water was diluted with 50% aqueous acetone or distilled water, each two-fold dilution of the solution was carried out with Middlebrook 7H9 broth containing 0.05% Tween 80, 0.2% dextrose and Middlebrook ADC enrichment. […] The microorganisms cultivated on Ogawa medium were suspended uniformly in Middlebrook 7H9 broth containing 0.05% Tween 80, 0.2% dextrose and Middlebrook ADC enrichment. The microorganism solution was adjusted to about 1×10^7 CFU/mL using a spectrophotometer. The resulting microorganism solution was further diluted with Middlebrook 7H9 broth containing 0.05% Tween 80, 0.2% dextrose and Middlebrook ADC enrichment (final viable cell count: about 1×10^5 CFU/mL). After mixing the diluted microorganism solution with the diluted test compound solution in the test tube, cultivation was performed at 35° C. for 10–21 days. When significant growth was found in the control test tube with no test compound, the MIC was determined as the minimum concentration of the compound at which no colony was recognized macroscopically in the test tube.
For orientation: Dilution methods test growth across graded concentrations, often in twofold steps.

Assay [1] has as its system Mycobacterium avium Strain NIHJ 1605. Put plainly: In vitro antibacterial activity (1): minimum inhibitory concentration, broth dilution. In kind it is cell-based. As to conditions: NIHJ1605, 144 h; Mycobacterium avium NIHJ 1605; Middlebrook 7H9 broth, aerobic culture at 37° C. for 6 days.

Values after ≈ are worked out from the molar mass of the structure shown.

For the compound `CO[C@H]1[C@@H](O)[C@H](n2ccc(=O)[nH]c2=O)O[C@@H]1[C@@H](O[C@H]1OC(C(=O)Nc2ccc(F)c(F)c2)=C[C@H](O)[C@@H]1O)C(N)=O` [Exemplification Compound No. 3712], the MIC amounted to 1 µg/mL (≈ 1.75 µM) in the assay on M. tuberculosis Kato and 2 µg/mL (≈ 3.51 µM) in assay [1].

For the compound `CO[C@H]1[C@@H](O)[C@H](n2ccc(=O)[nH]c2=O)O[C@@H]1[C@@H](O[C@H]1OC(C(=O)N[C@H]2CCCCNC2=O)=C[C@H](O)[C@@H]1O)C(N)=O` [Capuramycin, capuramycin, reference compound], the MIC in assay [1] was 8 µg/mL (≈ 14 µM).

For the origin of these results see patent US7157442B2, “Antibacterial compound” (Sankyo Company, Limited, priority 1999, dated 2007).
